# *1 amine or outer side, *2 acyl side, *3 side chain or, on linkers, in order; H or OH if unused. Where a SMILES comes first, the peptide text is derived from it. Bridges are numbered along the chain shown (N, C = ends). Roman numbers before positions name the chains, in order. [ ]: non-standard residue; d: D form. Actinocin(1to9) = Cc1c2oc3c(C)ccc(C(=O)[*:2])c3nc-2c(C(=O)[*:1])c(N)c1=O; NMeV = CN[C@H](C(=O)O)C(C)C; Sar = CNCC(=O)O
# System: A2780
# Assay: Cytotoxicity against human A2780 cells
# Assay type: functional, cell-based
row,SMILES,IC50
1,"Cc1c2oc3c(C)ccc(C(=O)N[C@@H]4C(=O)N[C@H](C(C)C)C(=O)N5CCC[C@H]5C(=O)N(C)CC(=O)N(C)[C@@H](C(C)C)C(=O)O[C@@H]4C)c3nc-2c(C(=O)N[C@@H]2C(=O)N[C@H](C(C)C)C(=O)N3CCC[C@H]3C(=O)N(C)CC(=O)N(C)[C@@H](C(C)C)C(=O)O[C@@H]2C)c(N)c1=O [DACTINOMYCIN] (I: T[dV]P[Sar][NMeV] / II: T[dV]P[Sar][NMeV]; ester I:1-I:C, II:1-II:C; linker I:N-II:N via Actinocin(1to9))",0.0008 µM
2,C=C(C)C(=O)O[C@H]1C[C@H](C)[C@@H](OC(C)=O)CC[C@@]2(C)O[C@@H]2[C@H]2OC(=O)C(COC(C)=O)=C12 [GLAUCOLIDE K],5.8 µM
3,C=C(C)C(=O)O[C@H]1C[C@H](C)[C@@H](OC(C)=O)CC[C@@]2(C)O[C@@H]2[C@H]2OC(=O)C(CO)=C12 [GLAUCOLIDE L],24.5 µM
4,C=C(C)C(=O)O[C@H]1C[C@H](C)[C@@H](OC(C)=O)CC[C@@](C)(O)/C=C2/OC(=O)C(COC(C)=O)=C21 [GLAUCOLIDE M],3.3 µM

# From ChEMBL document CHEMBL1141804, “Cytotoxic sesquiterpene lactones from Vernonia pachyclada from the Madagascar rainforest” (J Nat Prod, 2005)
